# Results from patent US10172911B2, “Methods of modulating erythropoiesis with arginine vasopressin receptor 1B molecules” (The United States of America, as represented by the …, priority 2013, dated 2019).
# “Also recorded” adds a separate entry of the source.
# Tests used:
# [1] = tested on: mouse bone marrow LSK cells; experiment: BrdU cell proliferation assay, sorted mouse bone marrow LSK cells; format: cell-based; details: 10^−8M-10^−14M, 2 days culture
# Method: (§1) Sorted mouse bone marrow LSK cells (10000 cells/well) were plated in a 96 well plate in Stemspan serum free expansion medium ([…] Technologies, Vancouver, Canada) with Pen/Strep, and the following hematopoietic factors: 100 ng/ml TPO, 50 ng/ml FLT3L, 50 ng/ml IL-3 and SCF 100 ng/ml (Peprotech, Rocky Hill, N.J.). Cells were treated with […] (Sigma-Aldrich, St. Louis, Mo.). When using human CD34^+ cells (5000 cells/well), human SCF, TPO, FLT3L and G-CSF (Peprotech, each at 50-100 ng/ml) were added to the Stemspan medium. Cells were treated with 10^−8M-10^−14M AVP. After 24 hours, BrdU at a 1:1000 concentration was added to the cultures and incorporation of BrdU was measured using the Cell Proliferation ELISA BrdU kit (Roche, Mannheim, Germany) after another 24 hours of incubation.
# human CD34^+ cells = experiment: BrdU cell proliferation assay, human CD34+ cells; format: cell-based
# Method: as §1
# C57BL6 male mice = experiment: Hemorrhage anemia model, Alzet pump delivery; format: in vivo, mouse
# Method: Mice were anesthetized with isoflurane. Twenty five percent of their calculated circulating blood volume (calculated based on Animal Research Advisory Committee Guidelines for survival bleeding of mice and rats, OACU, NIH) was drained from the retro-orbital plexus.
# The reticulocyte ratio of peripheral blood was determined using the Retic-Count flow kit (BD Biosciences) according to the manufacturer's instructions. Hematocrit values were measured with an automated analyzer and microhematocrit tubes. The reticulocyte index was calculated as follows: reticulocyte ratio %/total gated cells×hematocrit/45.
# To infuse vasopressin into the mice, AVP filled ALZET pumps were implanted subcutaneously on the dorsal aspect of the neck (5 ug/day, Alzet 1007D—7 days, 2002-14 days). Vasopressin was also given immediately and 6 hours later as a bolus injection (100 μg/kg). Alzet pumps were inserted subcutaneously. The dimensions and pump specification are: ALZET, (DURECT Corporation, Cupertino, Calif., USA) mini-osmotic pump models 1007D or 2002. The pumps deliver 0.5 μl/h of the desired substance for a for 2-week period. In some cases, erythropoietin antibody (100 μg/mice) was given before anesthesia with the corresponding control antibody. […] Following the initial hemorrhage blood samples were taken at 2, 4 and in some cases 6 days later to determine hematocrit and corrected reticulocyte values.
# mice = experiment: Peripheral blood values following EPO vs. AVP injections in hemorrhage; format: in vivo, mouse
# Method: AVP (100 μg/kg bodyweight) or EPOetin alfa (50 U/bodyweight, EPOgen) was administered intra-peritoneally to mice, immediately following hemorrhage. […] Hematocrit and reticulocyte counts were measured at different time points.
# splenectomized mice = experiment: Hemorrhage in splenectomized mice; format: in vivo, mouse; details: splenectomized mice vs controls
# Method: Three to four month old mice were splenectomized and recovered for a month. AVP was administered at the time of bleeding and blood was sampled 2 and 4 days later for hematocrit and reticulocyte measurements.
# BM erythroid cells = experiment: Bone marrow erythroid populations after injection of AVP, AVPR1B agonist or EPO (flow cytometry, EdU); format: in vivo, mouse
# Method: In vivo AVP-treated/hemorrhaged/control mice were IP injected with 10 μM/1000 g BW 5-ethynyl-2′-deoxyuridine (EdU: Life Technologies) for 2 hours. Single cell suspensions from the tibial and femoral bone marrows of mice (n=5 in each group) were prepared. After lysing the cells with ACK buffer, cells of the erythroid lineage were labeled with antibodies against TER-119 (BD Pharmingen) and CD71 (BD Pharmingen) or CD44 (BD Pharmingen) conjugated with FITC or PE fluorophores. After washing with FACS buffer, cells were fixed/permeabilized according to the manufacturer's recommendation (Life Technologies). Incorporated EdU molecules were visualized by a click reaction with Alexa Fluor 647-conjugated picolyl-azide and cell nuclei were stained with DAPI. Cell cycle characteristics of erythroid cells were detected with a Beckman-Coulter MoFlo Astrios flow cytometer.
# For lineage negative, Sca-1 positive and c-kit positive (LSK) cell sorting, rat anti-mouse lineage antibodies (anti CD4, CD8, B220, Ter119, Gr-1, CD11b) were added to bone marrow cell suspension after ACK lysis and cells were depleted using anti-rat magnetic beads (Biomag anti rat IgG, Qiagen). Lineage negative cells were stained with c-kit PE/Cy5 and Sca-1-FITC antibodies and the double positive population was further enriched with anti-PE and anti-FITC magnetic beads (Miltenyi). LSK cells were sorted on a DAKO Cytomation MoFlo cell sorter. For LSK subpopulation sorting lineage depleted cells were stained for c-kit, Sca-1, CD48, CD150 and CD34 and 4 LSK subpopulations were sorted using the gating strategy described by Wilson et al. (34). Sorted cells from HSC (LSK, CD34^−, CD48^−, CD150^+), MPP1 (LSK, CD34^+, CD48^−, CD150^+), MPP2 (LSK, CD34^+, CD48^+, CD150^+) and MPP3/4 (LSK, CD34^+, CD48^+, CD150^−) subpopulations were plated in 1×PBS onto coated glass slides fixed with 2% PFA and immunostained for AVPR1B. Erythropoietic progenitors were sorted based on CD71 and Ter119 markers. All cells were sorted using a MoFlo Astrios cell sorter (Beckman Coulter). Competitive Repopulation Assay
# The inventors determined that AVP induced a fast hematocrit response in severe anemia that is independent of EPO. AVP receptors in the HSPCs was confirmed and they next decided to examine how AVP affects the erythroid lineage cells (developmental stages) in the BM. […] In cell populations sorted as above, the presence of AVPR1B and EPO receptor (EPOR) mRNA using QPCR was also determined. […] AVPR2 mRNA was detected in all populations, whereas AVPR1A mRNA was barely detectable.
compound,measurement,setting,value
"NC(=O)CC[C@@H]1NC(=O)[C@H](Cc2ccccc2)NC(=O)[C@H](Cc2ccc(O)cc2)NC(=O)[C@@H](N)CSSC[C@@H](C(=O)N2CCC[C@H]2C(=O)N[C@@H](CCCN=C(N)N)C(=O)NCC(N)=O)NC(=O)[C@H](CC(N)=O)NC1=O [AVP, [Arg8]-Vasopressin]",proliferation (BrdU incorporation) of mouse LSK cells,[1],induced proliferation; also recorded: stimulated LSK proliferation; also recorded: significantly increased the proliferation
same,proliferation (BrdU) of human CD34+ cells / HSPCs,human CD34^+ cells,induced proliferation; also recorded: significantly increased the proliferation
same,corrected reticulocyte numbers,C57BL6 male mice; 2 days post hemorrhage,significant increase; also recorded: had increased
same,hematocrit,C57BL6 male mice; 2 days post hemorrhage,significant increase
same,hematocrit,C57BL6 male mice; 4 days post hemorrhage,significantly higher hematocrit
same,number of highly fluorescent (high intensity) reticulocytes,"C57BL6 male mice; anemia models, FACS with thiazol orange",significantly increased
same,hematocrits,C57BL6 male mice; between days 2 and 4 after removal of 25% of blood volume,also increased
same,recovery times,"C57BL6 male mice; hemorrhage, FIG. 9D",significantly improved recovery times
same,increase in hematocrit compared to PBS,mice; AVP 100 μg/kg i.p. just after hemorrhage,only statistically significant at 12 and 24 hours; also recorded: significant increase in hematocrit 12 hours following the insult
same,differences in hematocrit between EPO and AVP,mice; after hemorrhage,"significant at 6, 12 and 24 hours and disappeared 5 days after hemorrhage"
same,AVP-induced hematocrit response,splenectomized mice,no different from controls
same,"BM erythroid progenitors (Ter-119, CD 71 gated area)",BM erythroid cells; 16 hours after injection,clear increase in progenitors
same,apoptosis in the late progenitor populations,"BM erythroid cells; EdU, Annexin V and DAPI",significant decrease in apoptosis
same,effect on more matured erythroid populations,"BM erythroid cells; after hemorrhage, AVP vs EPO",much more robust effect than EPO
same,numbers of more mature erythroid cells (polychromatic and orthochromatic erythroblasts/reticulocytes),"BM erythroid cells; bone marrow, flow cytometry",significantly increased
